According to publication PMC11357256, “Selectivity Screening and Structure–Cytotoxic Activity Observations of Selected Oleanolic Acid (OA)-Type Saponins from the Amaranthaceae Family on a Wiade Panel of Human Cancer Cell Lines” (Molecules, 2024):
Read-outs that look alike come from different tables or passages of the source.

Experiments:
FTC133 = test: MTT cell viability assay, FTC133 follicular thyroid carcinoma cells; format: cell-based, human; details: for IC50: Homo sapiens, FTC-133
Text: (§1) Cell lines used in the study were grouped as follows: skin panel (melanomas: HTB140, derived from metastatic site: lymph node, ATCC Hs 294 T; malignant A375, ATCC CRL-1619; stage I primary WM793, RRID:CVCL 8787; skin keratinocytes HaCaT); prostate panel (prostate carcinomas: Du145, derived from metastatic site: brain, ATCC HTB-81; grade IV PC3, derived from metastatic site: bone, ATCC CRL-1435, LNCaP, derived from the metastatic site: lymph node, ATCC CRL-1740; prostate epithelial, PNT2, ECACC 95012613); gastrointestinal panel (colorectal adenocarcinomas: Caco2, ATCC HTB-37, HT29, ATCC HTB-38, DLD-1, ATCC CCL-221, HCT116, ATCC CCL-247, and colon epithelial cells CCD 841 CoN, ATCC CRL-1790; hepatocellular carcinoma HepG2, ATCC HB-8065); thyroid panel (follicular thyroid carcinoma FTC133, ECACC 9406090, undifferentiated thyroid carcinoma 8505C, ECACC 94090184, papillary thyroid carcinoma TPC-1, SCC147, normal thyroid follicular epithelial Nthy-ori 3–1, ECACC 90011609); and breast panel (ER-positive breast adenocarcinoma MCF7, ATCC HTB-22; ER-negative breast adenocarcinoma MDA-MB-231, ATCC HTB-26; breast epithelial MCF10A, ATCC CRL-10317). Cells were grown under standard conditions (37 °C, 5% CO2, relative humidity), and culture media (DMEM/F12 for PNT2, WM 793, HT29, PC3, FTC133, 8505 C, MDA-MB-231, TPC-1; DMEM Low Glucose for DU145; DMEM High Glucose for HTB140, A375, HaCaT; MEM with NEAA for Caco2 and MCF7; RPMI1640 with sodium pyruvate for LNCaP; DMEM/F12 with 20 ng/mL epidermal growth factor (EGF), 10 μg/mL insulin, 0.5 μg/mL hydrocortisone, 100 ng/mL cholera toxin) for MCF10A) supplemented with 10% fetal bovine serum (FBS) or 5% donor horse serum for MCF10A, and 1% antibiotics solution (10,000 U penicillin and 10 mg streptomycin/mL) […], as previously described. All cell lines, culture media, and supplements were from Sigma-Aldrich (Germany).
(§2) The cells were seeded in 96-well plates (1.5 × 10^4 cells/well). After 24 h, fresh medium was added, containing the tested compounds (0.5–100 μg/mL) and incubated for 24 or 48 h. Cell viability was determined by MTT assay, according to the manufacturer’s instructions, as described previously. Each experiment was performed in triplicate. The absorbance was measured at 570 nm using a Biotek Synergy microplate reader (BioTek Instruments Inc., Winooski, VT, USA). Cell viability was expressed as a percent of control (untreated cells). Doxorubicin was used as a reference drug.
(§3) The selectivity index (SI) was calculated from the following formula:SI = IC50 of compound in a normal cell line/IC50 of compound in cancer cell line.IC50, half maximal inhibitory concentration, is a concentration required to kill 50% of the cells.

HCT116 = test: MTT cell viability assay, HCT116 colon cancer cells; format: cell-based; details: Homo sapiens, HCT-116
Text: as §1, §2

PNT2 = test: MTT cell viability assay, PNT2 normal prostate epithelial cells; format: cell-based; details: Homo sapiens
Text: as §1, §2

Du-145 = test: MTT cell viability assay, Du-145 prostate carcinoma cells; format: cell-based; details: Homo sapiens
Text: as §1, §2

LNCaP = test: MTT cell viability assay, LNCaP prostate adenocarcinoma cells; format: cell-based; details: Homo sapiens
Text: as §1, §2

HepG2 = test: MTT cell viability assay, HepG2 hepatocellular carcinoma cells; format: cell-based; details: Homo sapiens
Text: as §1, §2

HTB-140 = test: MTT cell viability assay, HTB-140 metastatic melanoma cells; format: cell-based, human; details: for IC50: Homo sapiens
Text: as §1, §2, §3

TPC-1 = test: MTT cell viability assay, TPC-1 papillary thyroid carcinoma cells; format: cell-based, human; details: for IC50: Homo sapiens, TPC1
Text: as §1, §2, §3

MCF10A = test: MTT cell viability assay, MCF10A normal breast epithelial cells; format: cell-based; details: Homo sapiens, MCF-10A
Text: as §1, §2

CCD 841 CoN = test: MTT cell viability assay, CCD 841 CoN normal colon epithelial cells; format: cell-based; details: Homo sapiens
Text: as §1, §2

HaCaT = test: MTT cell viability assay, HaCaT keratinocytes; format: cell-based; details: Homo sapiens
Text: as §1, §2

HT29 = test: MTT cell viability assay, HT29 colorectal adenocarcinoma cells; format: cell-based; details: Homo sapiens, HT-29
Text: as §1, §2

WM793 = test: MTT cell viability assay, WM793 primary melanoma cells; format: cell-based, human; details: for IC50: Homo sapiens
Text: as §1, §2, §3

MDA-MB-231 = test: MTT cell viability assay, MDA-MB-231 breast adenocarcinoma cells; format: cell-based; details: Homo sapiens
Text: as §1, §2

Caco-2 = test: MTT cell viability assay, Caco-2 colon cancer cells; format: cell-based; details: Homo sapiens
Text: as §1, §2

MCF-7 cells = details: cited from earlier work
A375 = test: MTT cell viability assay, A375 malignant melanoma cells; format: cell-based, human; details: for IC50: Homo sapiens, A-375
Text: as §1, §2, §3

MCF7 = test: MTT cell viability assay, MCF7 breast adenocarcinoma cells; format: cell-based; details: Homo sapiens
Text: as §1, §2

Which IC50 (FTC133; FTC133, 24 h) does the source give for CC1(C)CCC2(C(=O)O)CCC3(C)C(=CCC4C5(C)CCC(OC6OC(C(=O)O)C(O)C(O)C6O)C(C)(C)C5CCC43C)C2C1 [CE, oleanolic acid-3-O-β-D-glucuronopyranoside] here?
Its IC50 is 1.9 µg/mL.

And the IC50 (FTC133; FTC133, 48 h)?
Its IC50 is 1.1 µg/mL.

What about the “Selectivity Index (SI)” value (FTC133; IC50 Nthy-ori 3-1 / IC50 FTC133, 24 h) of the same compound?
Its value is 38.6.

And the “Selectivity Index (SI)” value (FTC133; IC50 Nthy-ori 3-1 / IC50 FTC133, 48 h)?
The value was 28.1.

And the IC50 (HCT116; HCT116, 24 h)?
The IC50 was 14.3 µg/mL.

And the IC50 (HCT116; HCT116, 48 h)?
The IC50 was 10.2 µg/mL.

And the IC50 (PNT2; 24 h)?
Its IC50 is over 100 µg/mL.

And the IC50 (PNT2; 48 h)?
Its IC50 is over 100 µg/mL.

What about the IC50 (Du-145; DU-145, 24 h) of the same compound?
The IC50 was 6.7 µg/mL.

What about the IC50 (Du-145; DU-145, 48 h) of the same compound?
The IC50 was 4.3 µg/mL.

And the IC50 (LNCaP; 24 h)?
The IC50 was over 100 µg/mL.

What about the IC50 (LNCaP; 48 h) of the same compound?
Its IC50 is over 100 µg/mL.

And the IC50 (HepG2; HepG2, 24 h)?
Its IC50 is 16.5 µg/mL.

And the IC50 (HepG2; HepG2, 48 h)?
Its IC50 is 6.9 µg/mL.

And the IC50 (HTB-140; HTB-140, 24 h)?
Its IC50 is 2.8 µg/mL.

What about the IC50 (HTB-140; HTB-140, 48 h) of the same compound?
Its IC50 is 1.7 µg/mL.

And the “Selectivity Index (SI)” value (HTB-140; IC50 HaCaT / IC50 HTB-140, 24 h)?
Its value is 1.8.

What about the “Selectivity Index (SI)” value (HTB-140; IC50 HaCaT / IC50 HTB-140, 48 h) of the same compound?
The value was 1.1.

What about the IC50 (TPC-1; TPC-1, 24 h) of the same compound?
Its IC50 is 8.5 µg/mL.

And the IC50 (TPC-1; TPC-1, 48 h)?
The IC50 was 5.8 µg/mL.

What about the “Selectivity Index (SI)” value (TPC-1; IC50 Nthy-ori 3-1 / IC50 TPC-1, 24 h) of the same compound?
Its value is 9.0.

And the “Selectivity Index (SI)” value (TPC-1; IC50 Nthy-ori 3-1 / IC50 TPC-1, 48 h)?
Its value is 5.1.

And the IC50 (MCF10A; 24 h)?
The IC50 was over 100 µg/mL.

And the IC50 (MCF10A; 48 h)?
Its IC50 is over 100 µg/mL.

What about the IC50 (CCD 841 CoN; 24 h) of the same compound?
The IC50 was over 100 µg/mL.

And the IC50 (CCD 841 CoN; 48 h)?
The IC50 was over 100 µg/mL.

And the IC50 (HaCaT; 24 h)?
Its IC50 is 5.1 µg/mL.

What about the IC50 (HaCaT; 48 h) of the same compound?
The IC50 was 2 µg/mL.

And the IC50 (HT29; HT29, 24 h)?
Its IC50 is 4.5 µg/mL.

What about the IC50 (HT29; HT29, 48 h) of the same compound?
The IC50 was 2 µg/mL.

And the IC50 (WM793; WM793, 24 h)?
Its IC50 is 2.4 µg/mL.

And the IC50 (WM793; WM793, 48 h)?
Its IC50 is 1.2 µg/mL.

What about the “Selectivity Index (SI)” value (WM793; IC50 HaCaT / IC50 WM793, 24 h) of the same compound?
Its value is 2.1.

What about the “Selectivity Index (SI)” value (WM793; IC50 HaCaT / IC50 WM793, 48 h) of the same compound?
The value was 1.6.

And the IC50 (MDA-MB-231; MDA-MB-231, 24 h)?
Its IC50 is 69.6 µg/mL.

What about the IC50 (MDA-MB-231; MDA-MB-231, 48 h) of the same compound?
The IC50 was 23.5 µg/mL.

And the IC50 (Caco-2; Caco-2, 24 h)?
The IC50 was 2 µg/mL.

What about the IC50 (Caco-2; Caco-2, 48 h) of the same compound?
Its IC50 is 1 µg/mL.

What about the IC50 (MCF-7 cells; 48 h, ref 13) of the same compound?
Its IC50 is 35.4 µg/mL.

And the IC50 (MCF-7 cells; 48 h, ref 14, read-out: IC50)?
Its IC50 is 19.7 µM.

And the IC50 (MCF-7 cells; 72 h, read-out: IC50)?
Its IC50 is 13.4 µM.

What about the IC50 (A375; A375, 24 h) of the same compound?
The IC50 was 1.8 µg/mL.

What about the IC50 (A375; A375, 48 h) of the same compound?
Its IC50 is 0.8 µg/mL.

And the “Selectivity Index (SI)” value (A375; IC50 HaCaT / IC50 A375, 24 h)?
The value was 2.9.

And the “Selectivity Index (SI)” value (A375; IC50 HaCaT / IC50 A375, 48 h)?
Its value is 2.6.

What about the IC50 (MCF7; MCF7, 24 h) of the same compound?
Its IC50 is over 100 µg/mL.

And the IC50 (MCF7; MCF7, 48 h)?
The IC50 was 39.5 µg/mL.
